In one data set the target is T1, CYP11A1 (Homo sapiens, UniProt P05108).
T1 construct: human H295R adrenocortical carcinoma cell line was used as source of enzyme; endogenous in cells; host or cells: H295R human adrenocortical carcinoma cells
T1 sequence (P05108 40-521): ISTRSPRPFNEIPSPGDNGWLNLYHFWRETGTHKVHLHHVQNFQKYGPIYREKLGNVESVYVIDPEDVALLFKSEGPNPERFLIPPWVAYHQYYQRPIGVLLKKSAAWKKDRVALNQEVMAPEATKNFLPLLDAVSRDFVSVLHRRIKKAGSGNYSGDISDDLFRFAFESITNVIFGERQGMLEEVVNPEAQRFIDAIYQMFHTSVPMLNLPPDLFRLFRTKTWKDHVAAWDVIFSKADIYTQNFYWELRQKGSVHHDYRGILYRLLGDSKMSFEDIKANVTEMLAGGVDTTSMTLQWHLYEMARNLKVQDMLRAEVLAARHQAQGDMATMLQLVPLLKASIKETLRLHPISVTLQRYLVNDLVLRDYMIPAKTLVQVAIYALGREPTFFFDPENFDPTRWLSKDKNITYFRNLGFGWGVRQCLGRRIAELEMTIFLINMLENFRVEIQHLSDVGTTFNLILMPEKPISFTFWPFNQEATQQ
Briefly: CYP11A1 inhibition, isocaproic acid release assay (IARA) in H295R cells. Format: cell-based. The settings on record: human H295R adrenocortical carcinoma cell line, three days, 3 nM [24,25-3H]-labelled cholesterol; read-out: IC50 on CYP11A1 inhibition (Group). The protocol:
The ability of the test compounds to inhibit conversion of cholesterol to pregnenolone and isocaproic acid was measured by modification of isocaproic acid release assay (IARA) described by Ruangwises et al. (Biology of Reproduction 1991; 45(1):143-50) except that human H295R adrenocortical carcinoma cell line was used as source of enzyme and extraction was done with dextran-coated charcoal suspension (Isomaa, V. et al., Endocrinology 1982; 111(3):833-843). […] To determine the half maximal inhibitory concentration (IC50) of the test compounds on CYP11A1 inhibition, the cells were treated for three days with increasing concentrations of the test compounds in the presence of 3 nM [24,25-3H]-labelled cholesterol (American Radiolabelled Chemicals). The final DMSO concentration was 1%. Cell culture medium was extracted with dextran-coated charcoal suspension and the radiolabelled isocaproic acid was determined by mixing 100 μl of supernatant fraction in 200 μl of scintillation fluid (OptiPhase SuperMix, Perkin Elmer). Radioactivity was measured using a Microbeta scintillation counter (1450 MicroBeta Trilux, Wallac). All the test compounds were studied at 10 concentrations in duplicates.

Data set [1] addresses recombinant human cytochrome P450 (CYP) CYP3A4 enzyme (Homo sapiens, UniProt P08684). Briefly: Formation of reactive metabolites, trapping with GSH, KCN and SCA. Particulars: recombinant human CYP3A4, NADPH, 1 hour, pH 7.4.
Method: Formation of reactive metabolites was studied as described in Grillo, M., Expert Opin. […] (2015), 11(8):1281-1302 by incubating test compounds with recombinant human cytochrome P450 (CYP) CYP3A4 enzyme in the presence of cofactor NADPH and trapping agents glutathione (GSH), potassium cyanide (KCN) and semicarbazide (SCA).
Compounds were dissolved in DMSO and diluted in phosphate buffer (pH 7.4) to obtain the final incubation concentration 1 or 10 μM. Compounds were incubated with one trapping agent (mixture of unlabelled and ^13C^15N-labelled trapper 1:1) at a time with cofactor NADPH (actual samples) and without NADPH (control samples). Incubation time was 1 hour. Samples at timepoint 0 min (before incubation) and 60 min (after incubation) were analysed using ultra high-pressure liquid chromatography (UHPLC) coupled with high-resolution mass spectrometry (HRMS). Tentative identification of trapped metabolites was based on accurate masses of protonated molecules and product ion spectra of found metabolites and accurate mass differences between unlabelled and labelled trapping agents reacted with reactive metabolites.
The metabolites were classified as “major” if the peak area after incubation was over 10% of parent peak area before incubation. If peak area was between 1% and 10%, metabolites were classified as “minor” and if peak area was less than 1%, metabolite was classified as “trace”.

Molecules are shown by their SMILES.

For orientation: IC50 means the concentration that inhibits the measured activity by half.

recombinant human cytochrome P450 (CYP) CYP3A4 enzyme, sequence (P08684 whole entry): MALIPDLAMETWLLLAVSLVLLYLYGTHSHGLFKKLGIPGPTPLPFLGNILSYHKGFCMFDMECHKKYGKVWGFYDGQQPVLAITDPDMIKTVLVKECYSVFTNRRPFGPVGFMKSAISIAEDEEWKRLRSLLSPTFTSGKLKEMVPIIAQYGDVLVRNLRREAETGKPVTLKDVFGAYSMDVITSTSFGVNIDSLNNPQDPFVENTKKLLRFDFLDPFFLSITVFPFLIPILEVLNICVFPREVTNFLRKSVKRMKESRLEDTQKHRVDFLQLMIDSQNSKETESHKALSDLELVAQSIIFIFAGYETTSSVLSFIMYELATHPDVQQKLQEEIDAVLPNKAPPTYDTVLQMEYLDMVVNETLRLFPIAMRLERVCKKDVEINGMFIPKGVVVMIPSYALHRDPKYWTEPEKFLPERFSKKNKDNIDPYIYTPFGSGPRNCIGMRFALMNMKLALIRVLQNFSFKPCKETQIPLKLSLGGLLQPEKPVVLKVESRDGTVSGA

As to `CS(=O)(=O)N1CCC(COc2coc(CN3Cc4ccc(-c5nnco5)cc4C3)cc2=O)CC1` [Compound 1, 2-((5-(1,3,4-Oxadiazol-2-yl)isoindolin-2-yl)methyl)-5-(((methylsulfonyl)piperidin-4-yl)methoxy)-4H-pyran-4-one], the 50% inhibitory concentration (IC50) at CYP11A1 was 101 to 200 nM. Moreover, in data set [1] (test compound 10 μM), the “Number of CN trapped metabolites” value turned out to be 0, the “Number of GSH trapped metabolites” value is given as 0 and the “Number of SCA trapped metabolites” value is recorded as 2 (trace).
Consider `CS(=O)(=O)N1CCC(COc2coc(CN3Cc4ccc(-c5cnco5)cc4C3)cc2=O)CC1` [Compound 2, 5-((1-(Methylsulfonyl)piperidin-4-yl)methoxy)-2-((5-(oxazol-5-yl)isoindolin-2-yl)methyl)-4H-pyran-4-one], for which the half-maximal inhibitory concentration (IC50) on CYP11A1 was 101 to 200 nM. In data set [1] (test compound 10 μM), the “Number of CN trapped metabolites” value worked out at 0, the “Number of GSH trapped metabolites” value is recorded as 0 and the “Number of SCA trapped metabolites” value is given as 3 (trace).
`CS(=O)(=O)N1CCC(COc2coc(CN3Cc4ccc(-n5cccn5)cc4C3)cc2=O)CC1` [Compound 7, 2-((5-(1H-Pyrazol-1-yl)isoindolin-2-yl)methyl)-5-((1-(methylsulfonyl)piperidin-4-yl)methoxy)-4H-pyran-4-one]: at CYP11A1, the IC50 was in the range of 101 to 200 nM. In addition, in data set [1] (test compound 10 μM), the “Number of CN trapped metabolites” value is given as 0, the “Number of GSH trapped metabolites” value amounted to 0 and the “Number of SCA trapped metabolites” value is 1 (trace).
As for `CS(=O)(=O)N1CCC(COc2coc(CN3Cc4ccc(-c5ncon5)cc4C3)cc2=O)CC1` [Compound 8, 2-((5-(1,2,4-Oxadiazol-3-yl)isoindolin-2-yl)methyl)-5-((1-(methylsulfonyl)-piperidin-4-yl)methoxy)-4H-pyran-4-one], the 50% inhibitory concentration (IC50) at CYP11A1 is 101 to 200 nM. Moreover, in data set [1] (test compound 10 μM), the “Number of CN trapped metabolites” value is given as 0 and the “Number of GSH trapped metabolites” value was 1 (trace).
As for `CS(=O)(=O)c1cc(CN2Cc3ccc(-c4nnco4)cc3C2)ccc1OCC1CCN(S(C)(=O)=O)CC1` [Compound 10, 2-(2-(3-(Methylsulfonyl)-4-((1-(methylsulfonyl)piperidin-4-yl)methoxy)benzyl)-isoindolin-5-yl)-1,3,4-oxadiazole], the IC50 at CYP11A1 was in the range of 101 to 200 nM. Also, in data set [1] (test compound 10 μM), the “Number of CN trapped metabolites” value is listed as 1 (trace), the “Number of GSH trapped metabolites” value was 0 and the “Number of SCA trapped metabolites” value is given as 2 (trace).
As to `CC(C)(C)OC(=O)N1CC2(CC(COc3coc(CN4CCc5ccccc5C4)cc3=O)C2)C1` [Compound 30, tert-Butyl 6-(((6-((3,4-dihydroisoquinolin-2(1H)-yl)methyl)-4-oxo-4H-pyran-3-yl)oxy)methyl)-2-azaspiro[3.3]heptane-2-carboxylate], the IC50 at CYP11A1 lay in the range of 201 to 2000 nM. Besides, in data set [1] (test compound 1 μM), the “Number of CN trapped metabolites” value is 0, the “Number of GSH trapped metabolites” value was 0 and the “Number of SCA trapped metabolites” value is listed as 0.
In the case of `CC(=O)c1ccc2c(c1)CN(Cc1cc(=O)c(OCC3CCN(S(C)(=O)=O)CC3)co1)C2` [Compound 89, 2-((5-Acetylisoindolin-2-yl)methyl)-5-((1-(methylsulfonyl)piperidin-4-yl)-methoxy)-4H-pyran-4-one], at CYP11A1, the IC50 was under 100 nM. In data set [1] (test compound 10 μM), the “Number of CN trapped metabolites” value is listed as 0, the “Number of GSH trapped metabolites” value came to 0 and the “Number of SCA trapped metabolites” value is given as 1 (trace).
As for `C/C(=N\O)c1ccc2c(c1)CN(Cc1cc(=O)c(OCC3CCN(S(C)(=O)=O)CC3)co1)C2` [Compound 90, (E)-2-((5-(1-(Hydroxyimino)ethyl)isoindolin-2-yl)methyl)-5-((1-(methylsulfonyl)piperidin-4-yl)methoxy)-4H-pyran-4-one], the 50% inhibitory concentration (IC50) at CYP11A1 fell in the range of 101 to 200 nM. For the same molecule, in data set [1] (test compound 10 μM), the “Number of CN trapped metabolites” value is 0, the “Number of GSH trapped metabolites” value was determined as 0 and the “Number of SCA trapped metabolites” value is reported as 1 (trace).
Take `CC(O)c1ccc2c(c1)CN(Cc1cc(=O)c(OCC3CCN(S(C)(=O)=O)CC3)co1)C2` (centres unmarked) [Compound 93, 2-((5-(1-Hydroxyethyl)isoindolin-2-yl)methyl)-5-((1-(methylsulfonyl)piperidin-4-yl)methoxy)-4H-pyran-4-one]: the IC50 on CYP11A1 fell in the range of 201 to 2000 nM. Moreover, in data set [1] (test compound 10 μM), the “Number of CN trapped metabolites” value is given as 0, the “Number of GSH trapped metabolites” value was 0 and the “Number of SCA trapped metabolites” value was 3 (trace).

The record behind these values is US20230192677A1, “CYP11A1 INHIBITORS” (ORION CORPORATION, priority 2020, published 2023).
